According to patent US11912703B2, “6-azaindole compounds” (BRISTOL-MYERS SQUIBB COMPANY, priority 2017, dated 2024):
Read-outs that look alike come from different tables or passages of the source.

How the values were obtained:
human TLR7 = human TLR7 (Homo sapiens (Human), UniProt Q9NYK1); assay: TLR7 inhibition reporter assay (HEK-Blue SEAP); format: cell-based; conditions: HEK-Blue cells overexpressing human TLR7, gardiquimod 7.5 μM stimulation
Procedure: (§1) HEK-Blue™-cells (Invivogen) overexpressing human TLR7, TLR8 or TLR9 receptors were used for screening inhibitors of these receptors using an inducible SEAP (secreted embryonic alkaline phosphatase) reporter gene under the control of the IFN-β minimal promoter fused to five NF-κB and AP-1-binding sites. Briefly, cells are seeded into Greiner 384 well plates (15000 cells per well for TLR7, 20,000 for TLR8 and 25,000 for TLR9) and then treated with test compounds in DMSO to yield a final dose response concentration range of 0.05 nM-50 μM. After a 30 minute compound pre-treatment at room temperature, the cells are then stimulated with a TLR7 ligand (gardiquimod at a final concentration of 7.5 μM), TLR8 ligand (R848 at a final concentration of 15.9 μM) or TLR9 ligand (ODN2006 at a final concentration of 5 nM) to activate NF-κB and AP-1 which induce the production of SEAP. After a 22 hour incubation at 37° C., 500 CO2, SEAP levels are determined with the addition of HEK-Blue™ Detection reagent (Invivogen), a cell culture medium that allows for detection of SEAP, according to manufacturer's specifications.

human TLR9 = human TLR9 (Homo sapiens (Human), UniProt Q9NR96); assay: TLR9 inhibition reporter assay (HEK-Blue SEAP);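 also: SEAP driven by IFN-β minimal promoter carrying five NF-κB and AP-1 sites, 22 h at 37 °C, compounds 0.05 nM–50 µM, inhibition scaled between agonist-plus-DMSO and reference-inhibitor wells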
Procedure: as §1

human TLR8 = human TLR8 (Homo sapiens (Human), UniProt Q9NR97); assay: TLR8 inhibition reporter assay (HEK-Blue SEAP);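 also: SEAP driven by IFN-β minimal promoter with five NF-κB and AP-1 sites, compounds tested 0.05 nM to 50 µM, 22 h incubation, inhibition relative to agonist plus DMSO wells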
Procedure: as §1

[1] = read-out: TLR9 IC50; HEK-Blue cells overexpressing human TLR9, ODN2006 5 nM stimulation, SEAP reporter
[2] = read-out: TLR8 IC50; HEK-Blue cells overexpressing human TLR8, R848 15.9 μM stimulation, SEAP reporter
[3] = read-out: TLR9 IC50; HEK-Blue cells overexpressing human TLR9; ODN2006 5 nM stimulation; SEAP reporter
[4] = read-out: TLR8 IC50; HEK-Blue cells overexpressing human TLR8; R848 15.9 μM stimulation; SEAP reporter

human TLR8, sequence (Q9NR97 27-1041): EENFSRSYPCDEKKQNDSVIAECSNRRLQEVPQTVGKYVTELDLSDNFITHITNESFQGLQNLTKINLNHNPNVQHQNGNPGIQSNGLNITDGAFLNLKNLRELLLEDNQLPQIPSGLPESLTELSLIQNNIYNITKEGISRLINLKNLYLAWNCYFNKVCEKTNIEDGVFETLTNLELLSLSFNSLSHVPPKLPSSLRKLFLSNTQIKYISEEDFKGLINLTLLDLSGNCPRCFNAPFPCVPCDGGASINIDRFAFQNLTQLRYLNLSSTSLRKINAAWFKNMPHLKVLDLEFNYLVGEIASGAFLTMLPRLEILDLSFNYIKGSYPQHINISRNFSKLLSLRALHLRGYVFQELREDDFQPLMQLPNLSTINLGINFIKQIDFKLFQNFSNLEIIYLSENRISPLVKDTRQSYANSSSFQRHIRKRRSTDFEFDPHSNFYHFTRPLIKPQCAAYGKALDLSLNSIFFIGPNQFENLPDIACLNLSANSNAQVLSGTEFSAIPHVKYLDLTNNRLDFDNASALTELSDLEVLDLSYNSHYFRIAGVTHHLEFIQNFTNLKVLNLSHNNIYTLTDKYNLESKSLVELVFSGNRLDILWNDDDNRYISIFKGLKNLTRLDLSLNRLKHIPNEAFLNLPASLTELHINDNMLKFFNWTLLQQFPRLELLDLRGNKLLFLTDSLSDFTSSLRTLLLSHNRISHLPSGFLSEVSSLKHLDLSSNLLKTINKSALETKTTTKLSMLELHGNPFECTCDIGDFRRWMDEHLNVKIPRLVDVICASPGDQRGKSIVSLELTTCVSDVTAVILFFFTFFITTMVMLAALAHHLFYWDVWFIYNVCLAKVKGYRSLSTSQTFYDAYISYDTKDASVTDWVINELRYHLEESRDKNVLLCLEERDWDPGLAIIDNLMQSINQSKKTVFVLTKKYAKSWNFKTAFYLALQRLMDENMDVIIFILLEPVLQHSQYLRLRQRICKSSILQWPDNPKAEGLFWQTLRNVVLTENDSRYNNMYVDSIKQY
human TLR7, sequence (Q9NYK1 27-1049): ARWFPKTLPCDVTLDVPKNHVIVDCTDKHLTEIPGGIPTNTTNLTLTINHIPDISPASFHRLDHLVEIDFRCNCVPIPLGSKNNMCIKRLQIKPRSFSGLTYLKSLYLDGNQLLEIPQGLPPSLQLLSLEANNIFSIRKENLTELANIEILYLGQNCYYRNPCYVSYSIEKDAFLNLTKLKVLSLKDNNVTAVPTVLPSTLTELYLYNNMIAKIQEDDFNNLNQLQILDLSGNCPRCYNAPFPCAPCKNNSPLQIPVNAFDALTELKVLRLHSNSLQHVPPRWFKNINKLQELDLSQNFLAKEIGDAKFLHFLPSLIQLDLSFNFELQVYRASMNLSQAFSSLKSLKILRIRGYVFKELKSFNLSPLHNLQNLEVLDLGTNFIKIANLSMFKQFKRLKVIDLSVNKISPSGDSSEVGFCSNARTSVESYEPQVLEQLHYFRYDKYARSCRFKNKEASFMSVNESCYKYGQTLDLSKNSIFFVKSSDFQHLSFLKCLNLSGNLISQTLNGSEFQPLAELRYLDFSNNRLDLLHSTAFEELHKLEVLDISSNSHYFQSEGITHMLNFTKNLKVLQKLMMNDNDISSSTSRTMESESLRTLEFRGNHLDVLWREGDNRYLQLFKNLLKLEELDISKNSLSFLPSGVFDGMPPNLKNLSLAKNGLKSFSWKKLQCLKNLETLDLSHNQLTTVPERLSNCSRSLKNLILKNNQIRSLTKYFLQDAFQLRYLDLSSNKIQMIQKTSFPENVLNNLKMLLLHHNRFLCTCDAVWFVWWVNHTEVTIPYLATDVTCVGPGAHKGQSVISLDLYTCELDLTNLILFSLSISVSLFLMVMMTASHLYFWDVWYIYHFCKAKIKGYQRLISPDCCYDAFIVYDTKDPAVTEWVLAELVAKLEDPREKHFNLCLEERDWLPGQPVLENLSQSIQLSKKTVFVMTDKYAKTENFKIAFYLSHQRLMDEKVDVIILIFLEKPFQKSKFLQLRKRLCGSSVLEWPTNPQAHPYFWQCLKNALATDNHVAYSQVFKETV
human TLR9, sequence (Q9NR96 26-1032): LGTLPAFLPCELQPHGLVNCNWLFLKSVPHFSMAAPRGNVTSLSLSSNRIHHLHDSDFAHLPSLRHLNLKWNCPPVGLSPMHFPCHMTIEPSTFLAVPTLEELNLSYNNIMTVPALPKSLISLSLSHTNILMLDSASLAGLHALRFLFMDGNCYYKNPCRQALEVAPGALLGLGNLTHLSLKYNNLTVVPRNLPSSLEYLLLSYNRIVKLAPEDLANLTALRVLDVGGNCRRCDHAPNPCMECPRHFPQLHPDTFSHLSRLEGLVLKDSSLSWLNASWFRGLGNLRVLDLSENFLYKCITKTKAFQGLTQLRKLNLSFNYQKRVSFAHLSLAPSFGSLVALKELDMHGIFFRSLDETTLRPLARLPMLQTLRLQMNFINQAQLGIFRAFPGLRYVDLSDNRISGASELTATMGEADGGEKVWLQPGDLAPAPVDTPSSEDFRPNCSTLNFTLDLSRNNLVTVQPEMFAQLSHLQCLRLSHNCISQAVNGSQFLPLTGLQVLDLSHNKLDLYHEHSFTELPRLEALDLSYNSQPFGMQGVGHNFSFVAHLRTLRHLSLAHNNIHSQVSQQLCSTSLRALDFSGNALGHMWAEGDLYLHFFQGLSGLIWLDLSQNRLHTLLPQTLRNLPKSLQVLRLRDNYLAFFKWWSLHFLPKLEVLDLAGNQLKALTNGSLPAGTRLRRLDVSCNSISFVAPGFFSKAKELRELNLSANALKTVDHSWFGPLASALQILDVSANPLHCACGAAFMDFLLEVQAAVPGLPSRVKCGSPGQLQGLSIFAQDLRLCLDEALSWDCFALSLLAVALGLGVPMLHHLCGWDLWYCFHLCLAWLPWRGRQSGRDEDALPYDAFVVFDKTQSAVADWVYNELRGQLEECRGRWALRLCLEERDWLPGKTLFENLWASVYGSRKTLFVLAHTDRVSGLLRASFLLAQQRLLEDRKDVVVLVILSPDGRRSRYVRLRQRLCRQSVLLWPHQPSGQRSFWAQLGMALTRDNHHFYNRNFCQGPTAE

Row | SMILES | IC50 (human TLR7) | IC50 (human TLR9; [1]) | IC50 (human TLR8; [2]) | IC50 (human TLR9; [3]) | IC50 (human TLR8; [4])
1 | COc1cc(-c2[nH]c3cnc(N4CCC(NCC5(C)COC5)CC4)c(C)c3c2C(C)C)cn2ncnc12 [Example 147] | 0.62 nM | 2060 nM | 0.27 nM |  | 
2 | Cc1c(-c2[nH]c3cnc(N4CCN(S(C)(=O)=O)CC4)c(F)c3c2C(C)C)cn2ncnc2c1C [Example 425] | 13 nM | > 50000 nM | 17 nM |  | 
3 | Cc1c(N2CCC(NC34CC(C3)C4)CC2)ncc2[nH]c(-c3cc(C)c4ncnn4c3)c(C(C)C)c12 [Example 148] | 1.1 nM | 1170 nM | 1.7 nM |  | 
4 | COc1cc(-c2[nH]c3cnc(C4CCC(NC5COC5)C4)cc3c2C(C)C)cn2ncnc12 (centres unmarked) [Example 273] | 8.6 nM | 376 nM | 16 nM |  | 
5 | COc1cc(-c2[nH]c3cnc(N4CCN(CC(=O)N5CCOCC5)C[C@H]4C)c(F)c3c2C(C)C)cn2ncnc12 [Example 448] | 28 nM | > 50000 nM | 22 nM |  | 
6 | COc1cc(-c2[nH]c3cnc(C4CCC(N5CC6(COC6)C5)C4)cc3c2C(C)C)cn2ncnc12 (centres unmarked) [Example 209] | 29 nM | 1080 nM | 97 nM |  | 
7 | Cc1cc(-c2[nH]c3cnc(C4CCC(NC5CCOCC5)CC4)c(F)c3c2C(C)C)cn2ncnc12 (centres unmarked) [Example 82] | 0.18 nM | 1460 nM | 0.36 nM |  | 
8 | Cc1c(-c2[nH]c3cnc(N4CCC(NC5COC5)CC4)c(C)c3c2C(C)C)cn2ncnc2c1C [Example 237] | 1.6 nM | 2070 nM | 0.95 nM | 2070 nM | 0.95 nM
9 | Cc1c(-c2[nH]c3cnc(C4CCC(NC5COC5)CC4)c(F)c3c2C(C)C)cn2ncnc2c1C (centres unmarked) [Example 267] | 6.9 nM | 16700 nM | 1.9 nM |  | 
10 | COc1cc(-c2[nH]c3cnc(C4CCC(NCC(C)(C)C)C4)cc3c2C(C)C)cn2ncnc12 (centres unmarked) [Example 210] | 34 nM | 1080 nM | 6.6 nM |  | 
11 | Cc1c(-c2[nH]c3cnc(C4CCC(NC56CC(C5)C6)CC4)c(F)c3c2C(C)C)cn2ncnc2c1C (centres unmarked) [Example 238] | 62 nM | 28500 nM | 21 nM |  | 
12 | Cc1c(-c2[nH]c3cnc(C4CCC(NC5COC5)CC4)c(C)c3c2C(C)C)cn2ncnc2c1C (centres unmarked) [Example 91] | 40 nM | 676 nM | 27 nM |  | 
13 | Cc1c(-c2[nH]c3cnc(N4CC5(CN(C)C5)C4)c(F)c3c2C(C)C)cn2ncnc2c1C [Example 407] | 47 nM | 35400 nM | 828 nM |  | 
14 | COc1cc(-c2[nH]c3cnc(C4CCC(NC5CCOC5)CC4)cc3c2C(C)C)cn2ncnc12 (centres unmarked) [Example 317] | 2.1 nM | 34 nM | 7.1 nM |  | 

The remaining lines, values ahead:

Row | IC50 (human TLR7) | IC50 (human TLR9; [1]) | IC50 (human TLR8; [2]) | IC50 (human TLR9; [3]) | IC50 (human TLR8; [4]) | SMILES
15 | 2.3 nM | 188 nM | 7.2 nM |  |  | COc1cc(-c2[nH]c3cnc(C4CCN(CCS(C)(=O)=O)CC4)c(C)c3c2C(C)C)cn2ncnc12 [Example 25]
16 | 0.61 nM | 1270 nM | 1.1 nM |  |  | Cc1cc(-c2[nH]c3cnc(C4CCC(N(C)C(C)C)CC4)c(F)c3c2C(C)C)cn2ncnc12 (centres unmarked) [Example 261]
17 | 1.3 nM | 5250 nM | 0.76 nM |  |  | Cc1cc(-c2[nH]c3cnc(N4CCC(N(C)C5COC5)CC4)c(F)c3c2C(C)C)cn2ncnc12 [Example 130]
18 | 4.2 nM |  |  | 2000 nM | 3.7 nM | Cc1cc(-c2[nH]c3cnc(C4CCN(CC5(C)COC5)CC4)c(F)c3c2C(C)C)cc(C)n1 [Example 215]
19 | 4.8 nM | 757 nM | 17 nM |  |  | CCN(C)C1CCC(c2ncc3[nH]c(-c4cc(OC)c5ncnn5c4)c(C(C)C)c3c2C)CC1 (centres unmarked) [Example 268]
20 | 0.79 nM | 6430 nM | 0.26 nM |  |  | COc1cc(-c2[nH]c3cnc(N4CCC(NCC(C)(C)O)CC4)c(F)c3c2C(C)C)cn2ncnc12 [Example 156]
21 | 0.77 nM | 6020 nM | 0.35 nM |  |  | Cc1cc(-c2[nH]c3cnc(N4CCC(NCC(C)(C)O)CC4)c(F)c3c2C(C)C)cn2ncnc12 [Example 258]
22 | 0.41 nM | 620 nM | 0.32 nM |  |  | Cc1c(-c2[nH]c3cnc(C4CCC(NC(C)C)CC4)c(F)c3c2C(C)C)cn2ncnc2c1C (centres unmarked) [Example 136]
23 | 19 nM | 208 nM | 48 nM |  |  | Cc1c(-c2[nH]c3cnc(C4CCN(C(=O)CN(C)C)CC4)cc3c2C(C)C)cn2ncnc2c1C [Example 36]
24 | 13 nM | > 50000 nM | 25 nM |  |  | CNC(=O)CN1CCN(c2ncc3[nH]c(-c4cc(OC)c5ncnn5c4)c(C(C)C)c3c2F)[C@H](C)C1 [Example 445]
25 | 8.8 nM | 3830 nM | 5.2 nM |  |  | Cc1cc(-c2[nH]c3cnc(C4CCN(CC(=O)N(C)C)CC4)c(F)c3c2C(C)C)cc(C)n1 [Example 153]
